Data from US20220257774A1, “AROMATIC AMINE AR AHD BET TARGETING PROTEIN DEGRADATION CHIMERA COMPOUND AND USE” (HINOVA PHARMACEUTICALS INC., priority 2019, published 2022).
Like-named read-outs stand apart in the source and are kept apart here.

Test system: LNCaP/AR cells
Experiment: Inhibition of the proliferation of LNCap/AR cells (CCK-8)
Assay type: cell-based
Conditions: read-out: LNCap/AR IC50
Text: 1. Biological Assay of the Inhibition on the Proliferation of LNCap/AR Cells
(1) Experimental materials and instruments: LNCaP/AR cell line and 22RV1 cell line (provided by Sichuan Kangcheng Biotechnology Co., Ltd.) Fetal bovine serum FBS (Gibco, Cat. No. 10099-141) 0.01M PBS (Biosharp, Cat. No. 162262) RIPM1640 medium (Hyclone, Cat. No. 308090.01) Penicillin-Streptomycin (Hyclone, Cat. No. SV30010) Cell counting kit-8 (Signalway Antibody, Cat. No. CP002) DMSO (Sigma, Cat. No. D5879) Centrifuge Tube, 15 ml (Excell Bio, Cat. No. CS015-0001) Cell Culture Dish, (Excell Bio, Cat. No. CS016-0128) 96-well cell culture plate (Corning, Cat. No. 3599) Microplate reader (Thermo Multiskan MK3 type)
(2) Experimental Methods:
a. Preparation of Buffer Cell culture medium: RIPM1640 medium, 10% FBS, 1% Pen Strep: PBS buffer: PBS powder was dissolved in 2 L of ultrapure water and sterilized. b. Experimental Procedures 1) LNCaP/AR cells were subcultured in cell culture media, and then the cells in good growth condition were seeded in a 96-well plate at 80 μL/well (1000 cells/well), and cultured overnight in a 37° C., 5% CO2 cell incubator. 2) The drug was prepared into a 10 mM stock solution with dimethyl sulfoxide (DMSO). Prior to use, the stock solution was diluted in a ratio of […] with DMSO, and then diluted at a 3-fold gradient to obtain 9 serial concentrations. Then, each concentration of compound was further diluted in a ratio of 1:200 with the culture medium (to ensure that the DMSO concentration in the culture system was 0.1%), and two wells were set for each concentration. 20 μL of the diluted compound solution was added to the well of the cell culture (with a final concentration of 10 μM, 3.3 μM, 1.1 μM . . . ), and then the plate was gently tapped to thoroughly mix. In addition, the experiment included 3 negative control wells only containing cells and 3 blank control wells only containing culture medium (6 wells were each added with DMSO diluted in a ratio of 1:200 with 20 μL of culture medium). c. Result Detection: 1) After culturing for 6 days, 10 μL of CCK-8 was added to each well, and the plate was further incubated for 1 h in a 37° C., 5% CO2 cell incubator. 2) The absorbance (OD value) was measured at 450 nm with a multifunctional microplate reader. 3) The data was analyzed by the Dose-response-inhibition equation in the software GraphPad Prism5, and the IC50 value was obtained. 2. Biological assay of the inhibition on the proliferation of other drug-resistant prostate cancer cells

[1] = 144 h, LNCaP/AR cells, 6 days culture, CCK-8

| Compound | IC50 [1] | also measured |
| --- | --- | --- |
| CC(=O)O[C@@H]1C[C@@H](C(=O)N[C@@H](C)c2ccc(-c3scnc3C)cc2)N(C(=O)[C@@H](NC(=O)COCCCCCN(c2ccc(-n3ccnn3)c(Br)c2)c2cc(-c3c(C)noc3C)ccc2C)C(C)(C)C)C1 [Compound 20, (3R,5S)-1-((S)-2-(2-((5-((3-bromo-4-(1H-1,2,3-triazol-1-yl)phenyl)(5-(3,5-dimethylisoxazol-4-yl)-2-methylphenyl)amino)pentyl)oxy)acetamido)-3,3-dimethylbutyryl)-5-((S)-1-(4-methylthiazol-5-yl)phenyl)ethyl)carbamoyl)pyrrolidine-3-yl acetate] | < 100 nM |  |
| Cc1ccc(-c2c(C)noc2C)cc1N(CCCCCOCC(=O)N[C@H](C(=O)N1C[C@H](O)C[C@H]1C(=O)N[C@@H](C)c1ccc(-c2scnc2C)cc1)C(C)(C)C)c1ccc(-n2ccnc2)c(C(F)(F)F)c1 [Compound 21, (2S,4R)-1-((S)-2-(2-((5-((4-(1H-imidazol-1-yl)-3-(trifluoromethyl)phenyl)(5-(3,5-dimethylisoxazol-4-yl)-2-methylphenyl)amino)pentyl)oxy)acetamido)-3,3-dimethylbutyryl)-4-hydroxy-N—((S)-1-(4-(4-methylthiazol-5-yl)phenyl)ethyl)pyrrolidine-2-carboxamide] |  | IC50 (LNCaP/AR, 144 h): 501 to 2000 nM |
| CC(=O)O[C@@H]1C[C@@H](C(=O)N[C@@H](C)c2ccc(-c3scnc3C)cc2)N(C(=O)[C@@H](NC(=O)COCCCCCN(c2ccc(-n3ccnc3)c(C(F)(F)F)c2)c2cc(-c3c(C)noc3C)ccc2C)C(C)(C)C)C1 [Compound 22, (3R,5S)-1-((S)-2-(2-((5-((4-(1H-imidazol-1-yl)-3-(trifluoromethyl)phenyl)(5-(3,5-dimethylisoxazol-4-yl)2-methylphenyl)amino)pentyl)oxy)acetamido)-3,3-dimethylbutyryl)-5-((S)-1-(4-methylthiazol-5-yl)phenyl)ethyl)carbamoyl)pyrrolidine-3-yl acetate] | 501 to 2000 nM |  |
| CC(=O)O[C@@H]1C[C@@H](C(=O)N[C@@H](C)c2ccc(-c3scnc3C)cc2)N(C(=O)[C@@H](NC(=O)CN2CCC(CCN(c3ccc(-n4ccnc4)c(Br)c3)c3cc(-c4c(C)noc4C)ccc3C)CC2)C(C)(C)C)C1 [Compound 23, (3R,5S)-1-((S)-2-(2-(4-(2-((3-Bromo-4-(1H-imidazol-1-yl)phenyl)(5-(3,5-dimethylisoxazol-4-yl)-2-methylphenyl)amino)ethyl)piperidin-1-yl)acetamido)-3,3-dimethylbutanol)-5-((S)-1-(4-methylthiazol-5-yl)phenyl)ethyl)carbamoyl)pyrrolidine-3-yl acetate] |  | IC50 (LNCaP/AR cells, 6 days culture, CCK-8): > 2000 nM |
| Cc1ccc(-c2c(C)noc2C)cc1N(CCC1CCN(CC(=O)N[C@H](C(=O)N2C[C@H](O)C[C@H]2C(=O)N[C@@H](C)c2ccc(-c3scnc3C)cc2)C(C)(C)C)CC1)c1ccc(-n2ccnc2)c(Br)c1 [Compound 24] | > 2000 nM |  |
| Cc1ccc(-c2c(C)noc2C)cc1N(CCCCCOCC(=O)Nc1cccc2c1CN(C1CCC(=O)NC1=O)C2=O)c1ccc(-n2ccnc2)c(Br)c1 (stereo not drawn) [Compound 25, 2-((5-((3-Bromo-4-(1H-imidazol-1-yl)phenyl)(5-(3,5-Dimethylisoxazol-4-yl)-2-methylphenyl)amino)pentyl)oxy)-N-(2-(2,6-dioxopiperidin-3-yl)-1-oxoisoindol-4-yl)acetamide] | > 2000 nM |  |
| Cc1ccc(-c2c(C)noc2C)cc1N(CCCCCOCC(=O)N[C@H](C(=O)N1C[C@H](O)C[C@H]1C(=O)N[C@@H](C)c1ccc(-c2scnc2C)cc1)C(C)(C)C)c1ccc(Br)cc1 [Compound 26, (2S,4R)-1-((S)-2-(2-((5-((4-Bromophenyl)(5-(3,5-Dimethylisoxazol-4-yl)-2-methylphenyl)amino)pentyl)oxy)acetamido)-3,3-dimethylbutyryl)-4-hydroxy-N—((S)-1-(4-(4-methylthiazol-5-yl)phenyl)ethyl)pyrrolidine-2-formamide] | 101 to 500 nM |  |
| Cc1ccc(-c2c(C)noc2C)cc1N(CCCCCOCC(=O)Nc1cccc2c1CN(C1CCC(=O)NC1=O)C2=O)c1ccc(Br)cc1 (stereo not drawn) [Compound 27, 2-((5-((4-Bromophenyl)(5-(3,5-Dimethylisoxazol-4-yl)-2-methylphenyl)amino)pentyl)oxy)-N-(2-(2,6-dioxopiperidin-3-yl)-1-oxoisoindolin-4-yl)acetamide] | 501 to 2000 nM |  |
| Cc1ccc(-c2c(C)noc2C)cc1N(CCC1CCN(c2ccc3c(c2)C(=O)N(C2CCC(=O)NC2=O)C3=O)CC1)c1ccc(C2(C#N)CC2)cc1 (stereo not drawn) [Compound 28, 1-(4-((5-(3,5-Dimethylisoxazol-4-yl)-2-methylphenyl)(2-(1-(2-(2,6-dioxopiperidin-3-yl)-1,3-dioxoisoindolin-5-yl)piperidin-4-yl)ethyl)amino)phenyl)cyclopropane-1-carbonitrile] | 101 to 500 nM |  |
| CC(=O)O[C@@H]1C[C@@H](C(=O)N[C@@H](C)c2ccc(-c3scnc3C)cc2)N(C(=O)[C@@H](NC(=O)COCC#CCN(c2ccc(-n3ccnc3)cc2)c2cc(-c3c(C)noc3C)ccc2C)C(C)(C)C)C1 [Compound 46, (3R,5S)-1-((S)-2-(2-((4-((4-(1H-imidazol-1-yl)phenyl)(5-(3,5-dimethylisoxazol-4-yl)-2-methylphenyl)amino)but-2-yn-1-yl)oxy)acetamido)-3,3-dimethylbutanol)-5-((S)-1-(4-methylthiazol-5-yl)phenyl)ethyl)carbamoyl)pyrrolidine-3-yl acetate] |  | IC50 (LNCaP/AR, 144 h): > 2000 nM |

The next lines start with results.

| IC50 [1] | Compound | also measured |
| --- | --- | --- |
| > 2000 nM | Cc1ccc(-c2c(C)noc2C)cc1N(CCC1CCN(c2cc3c(cc2F)C(=O)N(C2CCC(=O)NC2=O)C3=O)CC1)c1ccc(C2(C#N)CC2)cc1 (stereo not drawn) [Compound 29, 1-(4-((5-(3,5-Dimethylisoxazol-4-yl)-2-methylphenyl)(2-(1-(2-(2,6-dioxopiperidin-3-yl)-6-fluoro-1,3-dioxoisoindolin-5-yl)piperidin-4-yl)ethyl)amino)phenyl)cyclopropane-1-carbonitrile] |  |
| 101 to 500 nM | Cc1ccc(-c2c(C)noc2C)cc1N(CCCC1CCN(c2ccc3c(c2)C(=O)N(C2CCC(=O)NC2=O)C3=O)CC1)c1ccc(C2(C#N)CC2)cc1 (stereo not drawn) [Compound 30, 1-(4-((5-(3,5-Dimethylisoxazol-4-yl)-2-methylphenyl)(3-(1-(2-(2,6-dioxopiperidin-3-yl)-1,3-dioxoisoindolin-5-yl)piperidin-4-yl)propyl)amino)phenyl)cyclopropane-1-nitrile] |  |
| 101 to 500 nM | Cc1ccc(-c2c(C)noc2C)cc1N(CCCCCNc1ccc2c(c1)CN(C1CCC(=O)NC1=O)C2=O)c1ccc(-c2c(C)noc2C)cc1 (stereo not drawn) [Compound 33, 3-(5-((5-((5-(3,5-Dimethylisoxazol-4-yl)-2-methylphenyl) (4-(3,5-dimethylisoxazol-4-yl)phenyl)amino)pentyl)amino)-1-oxoisoindolin-2-yl)piperidine-2,6-dione] |  |
| 501 to 2000 nM | CC(=O)O[C@@H]1C[C@@H](C(=O)N[C@@H](C)c2ccc(-c3scnc3C)cc2)N(C(=O)[C@@H](NC(=O)CN2CCN(CCN(c3ccc(-n4ccnc4)c(Br)c3)c3cc(-c4c(C)noc4C)ccc3C)CC2)C(C)(C)C)C1 [Compound 47, (3R,5S)-1-((S)-2-(2-(4-(2-((3-bromo-4-(1H-imidazol-1-yl)phenyl)(5-(3,5-dimethylisoxazol-4-yl)-2-methylphenyl)amino)ethyl)piperazin-1-yl)acetamido)-3,3-dimethylbutanol)-5-((S)-1-(4-methylthiazol-5-yl)phenyl)ethyl)carbamoyl)pyrrolidine-3-yl acetate] |  |
| 501 to 2000 nM | CC(=O)O[C@@H]1C[C@@H](C(=O)N[C@@H](C)c2ccc(-c3scnc3C)cc2)N(C(=O)[C@@H](NC(=O)COCCCCCN(c2ccc(-n3ccnc3)c(Br)c2)c2cc(-c3c(C)noc3C)cnc2C)C(C)(C)C)C1 [Compound 48, (3R,5S)-1-((S)-2-(2-((5-((3-bromo-4-(1H-imidazol-1-yl)phenyl)(5-(3,5-dimethylisoxazol-4-yl)-2-methylpyridin-3-yl)amino)pentyl)oxy)acetamido)-3,3-dimethylbutanol)-5-((S)-1-(4-methylthiazol-5-yl)phenyl)ethyl)carbamoyl)pyrrolidine-3-yl acetate] |  |
